The text below walks through data of patent US8685966B2, “GRP94 inhibitors” (University of Kansas, priority 2011, dated 2014).

Series [1] concerns IGF-II secretion. Particulars: serum-starved C2C12 myoblast cells; cited from earlier work.
The subject of the next series is BiP expression. In words: Induction of BiP expression (immunoblot). It counts as cell-based. (Immunoblotting shows a protein as a band on a membrane.)
For series [2], the system named is Drosophila larvae (w1118). The series is described as follows: Drosophila larval growth on supplemented fly food. It counts as in vivo. The source says:
In the absence of zygotic expression of Gp93, however, larvae display a pronounced growth defect, commensurate with disrupted gut epithelial morphology, decreased gut nutrient uptake, and marked aberrations in copper cell structure and function. As a consequence, loss of Gp93 expression is larval lethal in Drosophila. […]. […] In parallel experiments, larval gut tissue was obtained from each of the feeding conditions and gut epithelial morphology evaluated by fluorescence microscopy. […] Pharmacokinetic studies of compound absorption and metabolism may provide addition insights into this partial phenotypic behavior.
Compound effects on Drosophila larval growth were examined as described in 26. […]

The next series has as its system cytosolic Hsp90. The series is described as follows: Akt stability in the BiP induction experiment (immunoblot). The class given is cell-based. The settings on record: same concentrations as BiP induction. How it is done: NIH-3T3 cells were treated with 25 μM of 17-AAG (AAG), 10 μM of RDC or 0-50 μM of 2. After 18 hrs cells were harvested for SDS-PAGE and analyzed by immunoblotting. Grp94, BiP and PDIA6 were detected with the monoclonal anti-KDEL antibody, AKT by rabbit anti-serum. 14-3-3 served as loading control. Numbers below BiP, Grp94, and AKT bands are the relative expression levels, determined by densitometry.
Inhibition of Hsp90 is also known to induce expression of Hsp70 and this response is useful as a diagnostic tool (FIG. 11).^61-62 A parallel response exists when Grp94 expression is ablated by RNAi, or when its activity is inhibited by RDC or 17-AAG: a transcriptional response is initiated that leads to upregulation of expression of BiP, the ER member of the Hsp70 family (Eletto et al., submitted). We therefore assessed the ability of 2 to cause BiP up-regulation, in comparison to pan-Hsp90 inhibitors. […] However, at these concentrations, the compound also destabilized Akt, a hallmark of inhibition of cytosolic Hsp90 (FIG. 12).

The subject of series [3] is National Cancer Institute 60-cell panel (NCI-60). In words: NCI 60-cell panel cytotoxicity profile. The class given is cell-based. The source says:
This should not dampen excitement for selective Grp94 inhibitors, as numerous studies have shown 3-dimensional tumor response to be drastically different from cell culture responses. Requisite studies are underway to understand the effect of Grp94 inhibition on 3-dimensional tumor models.

Series [4] deals with IGF-II secretion. In words: IGF-II secretion by serum-starved C2C12 cells (ELISA). The class given is cell-based, mouse. The settings on record: 10 μM. Here is the method: IGF-II is a second well-defined Grp94-dependent client protein and active Grp94 is required for the secretion of IGF-11 (Ostrovsky et al., 2009).
For IGF-II ELISA, plates were coated with anti-IGF-II (MAb 792, R&D Systems) and incubated with the test cell media. The bound IGF-II was detected with a biotinylated anti-IGF-II antibody (BAF792, R&D Systems) and developed with streptavidin-HRP (R&D Systems) according to the manufacturer's recommended procedure. Optical density units were converted to concentrations of the growth factor with a standard curve generated with recombinant IGF-II (792-MG) (R&D Systems). Data were acquired in duplicate on a microtiter-plate reader (Dynatech Laboratories, Chantilly, Va.) at 450 nm.
A general note: ELISA stands for enzyme-linked immunosorbent assay.

The test system of the next series is C2C12 cells. In words: C2C12 cell viability (XTT assay). Particulars: same treatment as IGF-II assay. Background: Tetrazolium dyes change colour on reduction, which living cells bring about.
Series [5] deals with cytosolic Hsp90 (Hsp90α and Hsp90β). The series is described as follows: Western blot of Hsp90α/β client proteins (Raf, Akt) in HEK293 cell lysates. The class given is cell-based, human. Particulars: for concentration at which Hsp90α/β client proteins (Raf, Akt) are degraded/affected: HEK293, Western blot. Here is the method:
As previously mentioned, it has been shown that Grp94 is not essential for tissue culture cell viability.^28 In contrast, loss of functional Hsp90α or Hsp90β results in cell death. […]. […] To support these findings, western blot analyses of Hsp90α/β client proteins were performed from HEK293 cell lysates. […].
Briefly, HEK293 cells were plated in 6-well plates and treated with various concentrations of drug, GDA in DMSO (1% DMSO final concentration), or vehicle (DMSO) for 24 h. Cells were harvested in cold PBS and lysed in mammalian protein extraction reagent (MPER, Pierce) and protease inhibitors (Roche) on ice for 1 h. Lysates were clarified at 14,000 g for 10 min at 4° C. Protein concentrations were determined with the Pierce BCA assay kit per the manufacturer's instructions. Equal amounts of protein (10 μg) were electrophoresed under reducing conditions, transferred to a PVDF membrane, and immunoblotted with the corresponding specific antibodies. Membranes were incubated with an appropriate horseradish peroxidase-labeled secondary anti-body, developed with chemiluminescent substrate, and visualized.

In series [6] the target is yHsp82 (yeast homolog of Hsp90β) (Saccharomyces cerevisiae, UniProt P02829). The series is described as follows: Binding affinity by fluorescent quenching, yHsp82. Particulars: read-out: Kd value for yHsp82 (yeast homolog of Hsp90β), FIG. 1B.
Series [7] has as its target Grp94 (Canis lupus familiaris, UniProt P41148). The series is described as follows: Binding affinity by fluorescent quenching, Grp94.
The next series concerns HeLa cells. In words: HeLa cell survival (XTT assay), GRP94-sufficient or -deficient cells. It counts as cell-based. The settings on record: Homo sapiens, 48 hrs, regardless of presence of GRP94, read-out: IC50 for HeLa cell viability. Here is the method:
GRP94 and BiP were detected by the anti-KDEL antibody. *, an unknown KDEL-containing band. […] Cell survival was measured by XTT assay (n=4).
Similar results were obtained with other cell lines (e.g. C2C12 in FIG. 6).

Series [8] deals with SKBR3 (Her2 overexpressing, ER—) breast cancer cells. In words: Anti-proliferative activity, SKBR3. It counts as cell-based, human. The settings on record: said to be mimicked by the client degradation value; read-out: observed IC50 in SkBR3. How it is done: (§1) As previously mentioned, it has been shown that Grp94 is not essential for tissue culture cell viability.^28 In contrast, loss of functional Hsp90α or Hsp90β results in cell death. Therefore, we investigated the anti-proliferative effects of compounds 1-5 against two breast cancer cells, MCF7 (ER+) and SKBR3 (Her2 overexpressing, ER—), and against the non-transformed HEK293 cells. […] To support these findings, western blot analyses of Hsp90α/β client proteins were performed from HEK293 cell lysates.

Series [9] addresses T1, Grp94 (Homo sapiens, UniProt P14625).
T1 construct: endogenous in cells; host or cells: HEK293 (transfected only with pcDNA6B-Toll-Flag, the read-out client)
In words: Toll trafficking assay in Toll-transfected HEK293 cells. It counts as cell-based. The settings on record: Toll presentation inhibition versus Western blot of Hsp90-dependent client proteins.

Series [10] deals with MCF7 (ER+) breast cancer cells. In words: Anti-proliferative activity, MCF7. The class given is cell-based, human. The settings on record: said to be mimicked by the client degradation value; read-out: observed IC50 in MCF7. How it is done: as §1
[11] abbreviates: read-out: Kd value for Grp94, fluorescent quenching, FIG. 1B.
The mark [12] stands for this setting: read-out: kd for binding to the Hsp90 isoform GRP94.

“Also recorded” adds a separate entry of the source. Read-outs that look alike come from different tables or passages of the source.

Sequence of Grp94 (Canis lupus familiaris, UniProt P41148) (P41148 22-804): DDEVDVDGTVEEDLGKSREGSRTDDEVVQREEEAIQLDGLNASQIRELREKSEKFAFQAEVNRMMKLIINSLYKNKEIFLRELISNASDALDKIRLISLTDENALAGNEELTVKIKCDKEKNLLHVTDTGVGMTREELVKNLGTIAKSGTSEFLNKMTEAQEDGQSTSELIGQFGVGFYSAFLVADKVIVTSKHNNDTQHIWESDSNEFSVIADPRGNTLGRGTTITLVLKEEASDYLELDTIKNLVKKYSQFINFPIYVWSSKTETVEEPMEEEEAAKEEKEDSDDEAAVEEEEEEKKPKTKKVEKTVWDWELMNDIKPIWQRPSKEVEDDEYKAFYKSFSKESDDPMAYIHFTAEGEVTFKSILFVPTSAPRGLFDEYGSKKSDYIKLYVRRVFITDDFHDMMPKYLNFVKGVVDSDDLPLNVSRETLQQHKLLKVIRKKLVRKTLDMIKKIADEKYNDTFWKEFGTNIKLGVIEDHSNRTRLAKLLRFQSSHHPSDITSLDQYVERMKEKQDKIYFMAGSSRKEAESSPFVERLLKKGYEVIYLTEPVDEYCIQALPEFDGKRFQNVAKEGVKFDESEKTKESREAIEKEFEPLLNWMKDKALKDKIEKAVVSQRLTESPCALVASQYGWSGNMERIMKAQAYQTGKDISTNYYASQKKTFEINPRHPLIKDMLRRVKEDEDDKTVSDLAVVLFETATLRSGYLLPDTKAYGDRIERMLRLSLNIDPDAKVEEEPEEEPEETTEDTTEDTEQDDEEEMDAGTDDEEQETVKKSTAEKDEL
Sequence of yHsp82 (yeast homolog of Hsp90β) (P02829 whole entry): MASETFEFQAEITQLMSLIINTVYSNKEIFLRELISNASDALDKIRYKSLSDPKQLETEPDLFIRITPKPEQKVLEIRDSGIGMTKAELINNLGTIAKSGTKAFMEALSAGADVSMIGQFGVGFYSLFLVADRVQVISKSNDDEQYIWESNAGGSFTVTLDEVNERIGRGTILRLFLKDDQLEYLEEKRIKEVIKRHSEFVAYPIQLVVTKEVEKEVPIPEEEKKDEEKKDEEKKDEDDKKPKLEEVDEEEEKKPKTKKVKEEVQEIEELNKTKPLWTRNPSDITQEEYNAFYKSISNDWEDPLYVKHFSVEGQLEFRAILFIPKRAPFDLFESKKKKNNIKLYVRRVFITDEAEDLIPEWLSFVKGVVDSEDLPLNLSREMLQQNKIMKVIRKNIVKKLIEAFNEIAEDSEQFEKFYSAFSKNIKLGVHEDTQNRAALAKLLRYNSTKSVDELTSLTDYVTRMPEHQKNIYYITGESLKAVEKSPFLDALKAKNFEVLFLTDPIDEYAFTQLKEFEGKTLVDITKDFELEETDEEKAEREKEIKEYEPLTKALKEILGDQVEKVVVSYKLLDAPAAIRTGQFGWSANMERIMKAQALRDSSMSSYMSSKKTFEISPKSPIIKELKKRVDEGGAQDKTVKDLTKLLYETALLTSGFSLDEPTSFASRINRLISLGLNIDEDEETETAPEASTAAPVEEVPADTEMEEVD
T1 sequence (P14625 22-803): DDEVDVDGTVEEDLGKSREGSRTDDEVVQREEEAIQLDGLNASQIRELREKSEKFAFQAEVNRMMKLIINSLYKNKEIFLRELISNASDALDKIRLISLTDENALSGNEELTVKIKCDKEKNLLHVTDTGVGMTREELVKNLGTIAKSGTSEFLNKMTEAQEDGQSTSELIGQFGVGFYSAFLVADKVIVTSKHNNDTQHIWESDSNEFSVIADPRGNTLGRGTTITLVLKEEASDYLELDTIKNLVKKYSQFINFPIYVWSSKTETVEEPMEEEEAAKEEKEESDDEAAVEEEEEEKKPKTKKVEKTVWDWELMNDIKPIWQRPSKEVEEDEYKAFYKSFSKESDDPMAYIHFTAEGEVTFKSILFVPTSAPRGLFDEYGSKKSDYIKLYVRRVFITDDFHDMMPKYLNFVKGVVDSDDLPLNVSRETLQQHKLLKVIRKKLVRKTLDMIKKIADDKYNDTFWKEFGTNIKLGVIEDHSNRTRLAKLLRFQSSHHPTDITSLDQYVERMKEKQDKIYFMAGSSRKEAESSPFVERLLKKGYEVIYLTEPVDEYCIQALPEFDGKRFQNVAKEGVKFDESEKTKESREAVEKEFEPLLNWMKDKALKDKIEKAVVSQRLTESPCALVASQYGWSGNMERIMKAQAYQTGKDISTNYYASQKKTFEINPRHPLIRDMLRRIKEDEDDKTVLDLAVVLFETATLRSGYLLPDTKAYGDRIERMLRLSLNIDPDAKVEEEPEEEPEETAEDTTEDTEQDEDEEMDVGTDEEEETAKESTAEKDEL

In the case of `C=CCNC1=C2C[C@@H](C)C[C@H](OC)[C@H](O)[C@@H](C)/C=C(\C)[C@H](OC(N)=O)[C@@H](OC)/C=C\C=C(/C)C(=O)NC(=CC1=O)C2=O` [Compound 17-AAG, 17-(allylamino)-17-demethoxygeldanamycin], the “secretion of IGF-II (previously demonstrated)” value with IGF-II secretion [1] is recorded as “prevent the secretion of IGF-II”. The BiP up-regulation entry in the series on BiP expression (25 μM, data not shown) is “did cause BiP up-regulation”.
As for `COC(=O)c1c(O)cc(O)c(Cl)c1CCc1nccn1Cc1ccccc1` [Compound 2, Methyl 2-(2-(1-benzyl-1H-imidazol-2-yl)ethyl)-3-chloro-4,6-dihydroxybenzoate], the Drosophila larval growth result in [2] (250 μg/ml to 1 mg/ml in fly food, 96 hours) is listed as “dramatic growth phenotype; also recorded: stunted the growth of Drosophila larvae in a dose-dependent manner”. Further, the “larval gut copper cell structure” value in [2] (fluorescence microscopy of gut tissue, data not shown) was “No grossly discernible effects on copper cell structure”. Besides, in the series with cytosolic Hsp90, the “concentration at which Akt is destabilized” value is “above 200 μM”. Further, the “cytotoxicity across all 60 transformed cell lines” value in [3] is on record as “negligible cytotoxicity”. Further, the BiP up-regulation entry with BiP expression (0-75 μM, C2C12 cells) was “did not lead to up-regulation of BiP”. Further, the “concentration inducing BiP expression” value in the series on BiP expression (resembles RDC) is listed as “above 200 μM”. For the same compound, the “reduction of IGF-II secretion” value in the series with IGF-II secretion [4] is “Approximately 60%”. Besides, the “effect on cell viability” value in the series on C2C12 cells is listed as “little effect on cell viability”. In addition, the HSP70 induction result in series [5] (HEK293, 100 μM) is “induction of HSP70”. Also, the “concentration at which Hsp90α/β client proteins (Raf, Akt) are degraded/affected” value in series [5] is 100 µM.
The Kd is the equilibrium constant for the complex coming apart. In the case of `COC(=O)c1c(O)cc(O)c(Cl)c1CCC(=O)NC1=CC(=O)C(OC)=CC1=O` [Radamide], the Kd in [6] turned out to be 870 ± 140 nM; at Grp94 [7] (setting [11]) it was 520 ± 130 nM; on Grp94 [7] (setting [12]) it was 254 nM. For the same compound, the “fold higher binding affinity for full-length Grp94 than yHsp82” value on Grp94 [7] (full-length Grp94 vs yHsp82) is listed as “approximately 2 fold”.
For orientation: IC50 means the concentration that inhibits the measured activity by half. As to `C[C@@H]1C[C@H]2O[C@@H]2/C=C\C=C\C(=O)Cc2c(Cl)c(O)cc(O)c2C(=O)O1` [RDC, radicicol], in the series with HeLa cells, the IC50 was 8000 nM. Besides, the BiP up-regulation entry in the series with BiP expression (10 μM) is “did cause BiP up-regulation”.
As to cis-radamide [cRDA], the values for the Kd (in [6]; at Grp94 [7] (setting [11]); at Grp94 [7] (setting [12])) were 240 ± 120 nM, 110 ± 20 nM and 110 nM, respectively. The IC50 in [8] and in [10] was ~1000 nM throughout. Moreover, at Grp94 [9], the “selectivity for GRP94 versus cytoplasmic Hsp90 α/β” value is on record as “minimal selectivity”. Besides, in series [5], the “concentration at which Hsp90α/β client proteins (Raf, Akt) are degraded/affected” value is ~1 µM.
